Measured values reported in patent US20170105910A1, “UV FILTER CAPSULE” (BASF SE, priority 2007, published 2017).

Assay: Solubility of Ethylhexyl Triazone in solvents (visual assessment)
Assay type: physicochemical
Description: The solubility of Ethylhexyl Triazone in the systems indicated can be determined as follows:
The test substance is initially incorporated into the solvent (for example cosmetic emollient, as indicated in the table) at room temperature (about 20° C.-25° C.) with stirring in small beakers on a heatable magnetic stirrer (the stirring time here should not exceed about 30 min.). The assessment is carried out visually, i.e. it is checked whether a completely clear solution and without evident particles is present. The amounts, conditions and stirring times employed should be noted. If the substance is readily soluble, the concentration is increased by subsequent incorporation of further substance, for example by addition in 0.1 g steps with stirring. […] The assessment is carried out visually, if necessary with the aid of a microscope with lambda plate.

- solubility at room temperature (in Spectrasolv DMDA, room temperature (20° C. to 25° C.)): about 55 % by weight
- Ethylhexyl Triazone solubility at 25° C. (solvent C12-13 Alkyl Lactate): 22%
- Ethylhexyl Triazone solubility at 25° C. (solvent Di-C12-13 Alkyl Tartrate): 35%
- Ethylhexyl Triazone solubility at 25° C. (solvent Dioctyl Malate): 13%
- Ethylhexyl Triazone solubility at 25° C. (solvent Spectrasolv DMDA): about 55%
Compound: CCCCC(CC)COC(=O)c1ccc(Nc2nc(Nc3ccc(C(=O)OCC(CC)CCCC)cc3)nc(Nc3ccc(C(=O)OCC(CC)CCCC)cc3)n2)cc1 (centres unmarked) [Ethylhexyl Triazone, 2,4,6-tris[anilino(p-carbo-2′-ethyl-1′-hexyloxy)]-1,3,5-triazine]
